Test results reported in PubChem BioAssay (NCI).
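All cell lines were grown in 96-well plates and treated with compound for 48 hours. Here, GI50 denotes the concentration required for 50% inhibition of growth. TGI marks complete inhibition of growth.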

Key:
Test in all cases: NCI anticancer screen, dose series, 48 h
NCI-H226 lung = test system: NCI-H226 lung
NCI-H23 lung = test system: NCI-H23 lung
NCI-H460 lung = test system: NCI-H460 lung
NCI-H522 lung = test system: NCI-H522 lung
NCI/ADR-RES ovarian = test system: NCI/ADR-RES ovarian
OVCAR-4 ovarian = test system: OVCAR-4 ovarian
OVCAR-5 ovarian = test system: OVCAR-5 ovarian
OVCAR-8 ovarian = test system: OVCAR-8 ovarian
PC-3 prostate = test system: PC-3 prostate
RPMI-8226 leukemia = test system: RPMI-8226 leukemia
RXF 393 renal = test system: RXF 393 renal
SF-268 CNS = test system: SF-268 CNS
SF-295 CNS = test system: SF-295 CNS
SF-539 CNS = test system: SF-539 CNS
SK-MEL-2 melanoma = test system: SK-MEL-2 melanoma
SK-MEL-28 melanoma = test system: SK-MEL-28 melanoma
SK-MEL-5 melanoma = test system: SK-MEL-5 melanoma
SK-OV-3 ovarian = test system: SK-OV-3 ovarian
SN12C renal = test system: SN12C renal
SNB-19 CNS = test system: SNB-19 CNS
SNB-75 CNS = test system: SNB-75 CNS
SR leukemia = test system: SR leukemia
SW-620 colon = test system: SW-620 colon
T-47D breast = test system: T-47D breast
TK-10 renal = test system: TK-10 renal
U251 CNS = test system: U251 CNS
UACC-257 melanoma = test system: UACC-257 melanoma
UACC-62 melanoma = test system: UACC-62 melanoma
UO-31 renal = test system: UO-31 renal

How did the TGI (NCI-H226 lung) turn out when `Fc1ccc(-c2cc3nc(C(Cl)Cl)nc(-c4ccco4)n3n2)cc1` was run?
The TGI was over 100 µM.

And the GI50 (NCI-H23 lung)?
Its GI50 is 2.44 µM.

And the TGI (NCI-H23 lung)?
The TGI was over 58 µM.

And the GI50 (NCI-H460 lung)?
The GI50 was 0.217 µM.

What about the TGI (NCI-H460 lung) of the same molecule?
The TGI was 0.533 µM.

And the GI50 (NCI-H522 lung)?
Its GI50 is over 87.9 µM.

And the TGI (NCI-H522 lung)?
The TGI was over 100 µM.

What about the GI50 (NCI/ADR-RES ovarian) of the same molecule?
Its GI50 is 0.562 µM.

What about the TGI (NCI/ADR-RES ovarian) of the same molecule?
The TGI was 6.04 µM.

What about the GI50 (OVCAR-4 ovarian) of the same molecule?
Its GI50 is 2.62 µM.

And the TGI (OVCAR-4 ovarian)?
The TGI was 17.5 µM.

And the GI50 (OVCAR-5 ovarian)?
Its GI50 is 1.32 µM.

And the TGI (OVCAR-5 ovarian)?
The TGI was 6.7 µM.

What about the GI50 (OVCAR-8 ovarian) of the same molecule?
Its GI50 is 0.809 µM.

And the TGI (OVCAR-8 ovarian)?
The TGI was over 100 µM.

And the GI50 (PC-3 prostate)?
The GI50 was 0.727 µM.

What about the TGI (PC-3 prostate) of the same molecule?
The TGI was 3.88 µM.

What about the GI50 (RPMI-8226 leukemia) of the same molecule?
Its GI50 is 0.481 µM.

And the TGI (RPMI-8226 leukemia)?
The TGI was 4.03 µM.

What about the GI50 (RXF 393 renal) of the same molecule?
Its GI50 is 0.413 µM.

What about the TGI (RXF 393 renal) of the same molecule?
Its TGI is 2.51 µM.

And the GI50 (SF-268 CNS)?
Its GI50 is 1.24 µM.

And the TGI (SF-268 CNS)?
The TGI was 8.16 µM.

And the GI50 (SF-295 CNS)?
Its GI50 is 0.663 µM.

And the TGI (SF-295 CNS)?
The TGI was 4.08 µM.

And the GI50 (SF-539 CNS)?
The GI50 was 0.832 µM.

What about the TGI (SF-539 CNS) of the same molecule?
The TGI was 3.71 µM.

What about the GI50 (SK-MEL-2 melanoma) of the same molecule?
The GI50 was 5.36 µM.

And the TGI (SK-MEL-2 melanoma)?
Its TGI is 20.4 µM.

And the GI50 (SK-MEL-28 melanoma)?
The GI50 was 2.46 µM.

What about the TGI (SK-MEL-28 melanoma) of the same molecule?
The TGI was 6.46 µM.

And the GI50 (SK-MEL-5 melanoma)?
The GI50 was over 100 µM.

What about the TGI (SK-MEL-5 melanoma) of the same molecule?
Its TGI is over 100 µM.

What about the GI50 (SK-OV-3 ovarian) of the same molecule?
The GI50 was 2.88 µM.

And the TGI (SK-OV-3 ovarian)?
Its TGI is over 49.4 µM.

What about the GI50 (SN12C renal) of the same molecule?
The GI50 was over 100 µM.

What about the TGI (SN12C renal) of the same molecule?
Its TGI is over 100 µM.

And the GI50 (SNB-19 CNS)?
The GI50 was 0.541 µM.

What about the TGI (SNB-19 CNS) of the same molecule?
Its TGI is 5.81 µM.

And the GI50 (SNB-75 CNS)?
The GI50 was 0.638 µM.

And the TGI (SNB-75 CNS)?
Its TGI is 3.99 µM.

And the GI50 (SR leukemia)?
The GI50 was 17.8 µM.

And the TGI (SR leukemia)?
Its TGI is over 100 µM.

What about the GI50 (SW-620 colon) of the same molecule?
The GI50 was 0.402 µM.

What about the TGI (SW-620 colon) of the same molecule?
Its TGI is 3.55 µM.

What about the GI50 (T-47D breast) of the same molecule?
The GI50 was 1.01 µM.

And the TGI (T-47D breast)?
The TGI was 6.71 µM.

What about the GI50 (TK-10 renal) of the same molecule?
The GI50 was 3.54 µM.

What about the TGI (TK-10 renal) of the same molecule?
The TGI was 7.5 µM.

And the GI50 (U251 CNS)?
The GI50 was 0.309 µM.

And the TGI (U251 CNS)?
Its TGI is 2.7 µM.

And the GI50 (UACC-257 melanoma)?
The GI50 was 3.53 µM.

And the TGI (UACC-257 melanoma)?
The TGI was 19.6 µM.

What about the GI50 (UACC-62 melanoma) of the same molecule?
The GI50 was 3.61 µM.

And the TGI (UACC-62 melanoma)?
Its TGI is over 53.8 µM.

What about the GI50 (UO-31 renal) of the same molecule?
Its GI50 is 1.32 µM.

And the TGI (UO-31 renal)?
Its TGI is 5.78 µM.
